Laboratory results published in patent publication US20240287052A1, “NOVEL OXAZOLE DERIVATIVE AND PHARMACEUTICAL COMPOSITION FOR PREVENTING OR TREATING ALLERGIC DISEASES COMPRISING THE SAME” (AZCURIS CO., LTD., priority 2021, published 2024).
pEC50, pIC50: −log10 of the molar value. Like-named read-outs stand apart in the source and are kept apart here.

How the values were obtained:
[1] = test system: Human liver cancer cell line HepG2 cells; assay: Cellular viability, WST-8 assay, without or with human liver microsomes; type: cell-based; details: for Cellular viability (%) (+) microsome: HepG2, with human liver microsomes; for Cellular viability (%) (−) microsome: HepG2, without human liver microsomes
Procedure: (§1) Human liver cancer cell line HepG2 cells were cultured in a medium (high glucose Dulbecco's Modified Eagle Medium, DMEM, HyClone) supplemented with 10% fetal bovine serum (FBS, HyClone) and 1% antibiotic in a thermostat maintained at 37° C. with 5% CO2.
(§2) HepG2 cells, which are adherent cells, were […] or presence of human liver microsomes (Gibco) and NADPH regenerating system.
(§3) Cell cultures were exchanged using […] of medium (high glucose Dulbecco's Modified Eagle Medium, DMEM, HyClone) and incubated for 24 hours.
(§4) After adding 10 μL of WST-8 (abCam), the absorbance was obtained at 460 nm after 5 seconds of orbital shaking with a microplate reader (Tecan, Spark©) 2 hours later.
(§5) The mean of the three values obtained in triplicate was calculated and expressed as % cellular viability compared to vehicle treatment.

IL33 and ST2 binding [2] = biological target: T1, IL33 and ST2 binding (Homo sapiens, UniProt O95760);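 note: plate ELISA with coated Flag-tagged human IL-33 and His-tagged human ST2, bound ST2 detected by anti-His HRP and TMB absorbance at 450 nm, 2 h compound incubation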
T1 sequence (O95760 112-270 limits assumed): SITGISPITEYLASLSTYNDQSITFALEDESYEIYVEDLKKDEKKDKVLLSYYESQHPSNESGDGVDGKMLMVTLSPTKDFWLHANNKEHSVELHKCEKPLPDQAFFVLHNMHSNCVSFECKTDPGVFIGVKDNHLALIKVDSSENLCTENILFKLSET

[3] = test system: IL-6 secretion in the human mast cell line HMC 1.1; assay: IL-6 production inhibition assay (IL-33 stimulated HMC 1.1 cells, IL-6 ELISA); type: cell-based; details: for inhibition at 0.1 µM: 0.1 μM compound, read-out: Inhibition of hIL-6 production (%) 0.1 μM; for inhibition at 0.1 µM / inhibition at 1 µM / inhibition at 10 µM: 24 hours; for inhibition at 1 µM: 1 μM compound, read-out: Inhibition of hIL-6 production (%) 1 μM; for inhibition at 10 µM: 10 μM compound, read-out: Inhibition of hIL-6 production (%) 10 μM; for pEC50: read-out: Inhibition of hIL-6 production EC50
Outline: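 HMC 1.1 cells stimulated with 200 nM recombinant human IL-33 were exposed 24 hours to compound at 10 μM, 25 μM, 30 μM or 50 μM, among other levels. Secreted IL-6 was quantified by ELISA in triplicate against a standard curve and expressed as % of vehicle.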

IL33 and ST2 binding [4] = biological target: T1, IL33 and ST2 binding; assay: biochemical
[5] = Cellular viability, WST-8 assay, without or with human liver microsomes; type: cell-based
Procedure: as §1, §2, §3, §4, §5

[6] = HepG2, with human liver microsomes, read-out: CC50 (μM) (+) microsome
[7] = HepG2 cells, HepG2, without human liver microsomes, read-out: CC50 (μM) (−) microsome

Row | SMILES | Cellular viability (%) (+) microsome ([1]; at 135 μM) [at %] | Cellular viability (%) (−) microsome ([1]; at 135 μM) [at %] | inhibition (IL33 and ST2 binding [2]; 30 µM) [%] | inhibition (IL33 and ST2 binding [2]; 100 µM) [%] | inhibition at 0.1 µM [3] [%] | inhibition at 1 µM [3] [%] | inhibition at 10 µM [3] [%] | pEC50 [3] | pIC50 (IL33 and ST2 binding [4]) | Cellular viability (%) (+) microsome ([1]; at 100 μM) [at %] | Cellular viability (%) (−) microsome ([1]; at 100 μM) [at %] | CC50 at 24 h [5, 6] [µM] | CC50 at 24 h [5, 7] [µM] | Cellular viability (%) (+) microsome ([1]; at 160 μM) [at %] | Cellular viability (%) (−) microsome ([1]; at 160 μM) [at %]
1 | CCOC(=O)c1nc(-c2ccc(C(F)(F)F)cc2)oc1-c1ccccc1 [Compound 31, Ethyl 5-phenyl-2-(4-(trifluoromethyl)phenyl)oxazole-4-carboxylate] | 66 | 83 | 110 | 109 | 46 | 56 | 69 | 6.64 | 6.11 |  |  |  |  |  | 
2 | CCOC(=O)c1nc(-c2ccc(C(F)(F)F)cc2)oc1-c1cccc([N+](=O)[O-])c1 [Compound 33, Ethyl 5-(3-nitrophenyl)-2-(4-(trifluoromethyl)phenyl)oxazole-4-carboxylate] |  |  | 107 | 108 |  | 30 | 32 |  | 5.77 | 68 | 73 | 43.5 | 67 |  | 
3 | CCOC(=O)c1nc(-c2ccc(C(F)(F)F)cc2)oc1-c1ccc([N+](=O)[O-])cc1 [Compound 34, Ethyl 5-(4-nitrophenyl)-2-(4-(trifluoromethyl)phenyl)oxazole-4-carboxylate] |  |  | 108 | 108 |  |  |  |  | 6.04 | 85 | 87 |  |  |  | 
4 | CCOC(=O)c1nc(-c2ccc(C(F)(F)F)cc2)oc1-c1ccccc1OC [Compound 44, Ethyl 5-(2-methoxyphenyl)-2-(4-(trifluoromethyl)phenyl)oxazole-4-carboxylate] |  |  | 100 |  |  | 38 | 77 | 5.59 | 5.90 | 99 | 68 |  |  |  | 
5 | CCOC(=O)c1nc(-c2ccc(C(F)(F)F)cc2)oc1-c1ccccc1OC(F)(F)F [Compound 52, Ethyl 5-(2-(trifluoromethoxy)phenyl)-2-(4-(trifluoromethyl)phenyl)oxazole-4-carboxylate] |  |  | 115 | 115 |  | 22 | 48 | 5.65 | 5.10 | 97 | 117 |  |  |  | 
6 | CCOC(=O)c1nc(-c2cccc(Cl)c2)oc1-c1ccccc1 [Compound 75, Ethyl 2-(3-chlorophenyl)-5-phenyloxazole-4-carboxylate] |  |  | 93 | 108 |  | 5 | 26 |  | 4.93 | 100 | 106 |  |  |  | 
7 | CCOC(=O)c1nc(-c2ccc(Cl)c(C(F)(F)F)c2)oc1-c1ccccc1 [Compound 98, Ethyl 2-(4-chloro-3-(trifluoromethyl)phenyl)-5-phenyloxazole-4-carboxylate] |  |  | 110 | 110 |  | -12 | 30 |  | 5.28 | 90 | 83 |  |  |  | 
8 | CN1CCN(CCNC(=O)c2nc(-c3cc(F)cc(F)c3)oc2-c2ccccc2[N+](=O)[O-])CC1 [Compound 238, 2-(3,5-Difluorophenyl)-N-(2-(4-methylpiperazin-1-yl)ethyl)-5-(2-nitrophenyl)oxazole-4-carboxamide] |  |  | 40 | 103 |  | 14 | 45 | 5.20 |  | 53 | 49 | 21.3 | 19 |  | 
9 | CN(C)CCNC(=O)c1nc(-c2cccc(Cl)c2)oc1-c1ccccc1 [Compound 240, 2-(3-Chlorophenyl)-N-(2-(dimethylamino)ethyl)-5-phenyloxazole-4-carboxamide] |  |  | 7 | 70 |  | 6 | 44 | 5.43 |  | 50 | 45 | 6.36 | 5.46 |  | 
10 | CN(C)CCNC(=O)c1nc(-c2ccc(Cl)cc2)oc1-c1ccccc1[N+](=O)[O-] [Compound 246, 2-(4-Chlorophenyl)-N-(2-(dimethylamino)ethyl)-5-(2-nitrophenyl)oxazole-4-carboxamide] |  |  | 110 | 112 |  | 20 | 45 | 5.21 | 5.32 | 52 | 47 | 16 | 11.8 |  | 
11 | CN(C)CCNC(=O)c1nc(-c2ccc(C#N)cc2)oc1-c1ccccc1 [Compound 249, 2-(4-Cyanophenyl)-N-(2-(dimethylamino)ethyl)-5-phenyloxazole-4-carboxamide] |  |  | 81 | 97 |  | 8 | 35 |  | 5.19 | 50 | 43 | 29.1 | 19 |  | 
12 | CSc1ccc(-c2nc(C(=O)NCCN(C)C)c(-c3ccccc3)o2)cc1 [Compound 271, N-(2-(Dimethylamino)ethyl)-2-(4-(methylthio)phenyl)-5-phenyloxazole-4-carboxamide] |  |  | 31 | 105 |  | 14 | 69 | 6.07 |  | 52 | 45 | 6.12 | 3.74 |  | 
13 | CSc1ccc(-c2nc(C(=O)NCCN3CCN(C)CC3)c(-c3ccccc3)o2)cc1 [Compound 272, N-(2-(4-Methylpiperazin-1-yl)ethyl)-2-(4-(methylthio)phenyl)-5-phenyloxazole-4-carboxamide] |  |  | 97 | 97 |  | 52 | 79 | 6.38 | 5.38 | 49 | 46 | 5.6 | 4.73 |  | 
14 | CN(C)CCNC(=O)c1nc(-c2ccc([N+](=O)[O-])cc2)oc1-c1ccccc1[N+](=O)[O-] [Compound 277, N-(2-(Dimethylamino)ethyl)-5-(2-nitrophenyl)-2-(4-nitrophenyl)oxazole-4-carboxamide] |  |  | 60 | 111 |  | 27 | 31 |  | 4.84 | 49 | 46 | 46.2 | 25.4 |  | 
15 | CNC(=O)c1nc(-c2ccc(C(F)(F)F)cc2)oc1-c1cccc(SC)c1 [Compound 290, N-Methyl-5-(3-(methylthio)phenyl)-2-(4-(trifluoromethyl)phenyl)oxazole-4-carboxamide] | 60 | 47 | 112 | 112 | 28 | 49 | 59 |  | 5.35 |  |  |  |  |  | 
16 | CCNC(=O)c1nc(-c2ccc(C(F)(F)F)cc2)oc1-c1cccc(SC)c1 [Compound 291, N-Ethyl-5-(3-(methylthio)phenyl)-2-(4-(trifluoromethyl)phenyl)oxazole-4-carboxamide] |  |  | 112 | 111 | 25 | 40 | 66 | 6.31 | 6.19 |  |  |  |  | 102 | 106
17 | CCCNC(=O)c1nc(-c2ccc(C(F)(F)F)cc2)oc1-c1cccc(SC)c1 [Compound 292, 5-(3-(Methylthio)phenyl)-N-propyl-2-(4-(trifluoromethyl)phenyl)oxazole-4-carboxamide] | 58 | 55 | 110 | 112 | 29 | 39 | 42 | 7.05 | 5.95 |  |  |  |  |  | 
